Reference: ChEMBL document CHEMBL1201862, “PubChem BioAssay data set” (2004)
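Method: 48-hour compound exposure of cells in 96-well plates, five concentrations, linear interpolation of endpoints. GI50 = concentration required for 50% inhibition of growth.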 Activity calls are given as the source filed them. Rule as the data show it: active = GI50 up to about 1.1 µM and inactive = higher.

Experiments:
Assay in all cases: NCI anticancer screen, dose series, 48 h
786-0 = system: 786-0
A498 = system: A498
A549 = system: A549
ACHN = system: ACHN
BT-549 = system: BT-549
CCRF-CEM = system: CCRF-CEM
COLO 205 = system: COLO 205
DU-145 = system: DU-145
HCC 2998 = system: HCC 2998
HCT-116 = system: HCT-116
HCT-15 = system: HCT-15
HL-60 = system: HL-60
HOP-62 = system: HOP-62
HOP-92 = system: HOP-92
HT-29 = system: HT-29
Hs-578T = system: Hs-578T
IGROV-1 = system: IGROV-1
K562 = system: K562
KM12 = system: KM12
LOX IMVI = system: LOX IMVI
M14 = system: M14
MCF7 = system: MCF7
MDA-MB-231 = system: MDA-MB-231
MDA-MB-435 = system: MDA-MB-435
MDA-N = system: MDA-N
Malme-3M = system: Malme-3M
NCI-H226 = system: NCI-H226
NCI-H23 = system: NCI-H23
NCI-H460 = system: NCI-H460
NCI/ADR-RES = system: NCI/ADR-RES
OVCAR-3 = system: OVCAR-3
OVCAR-4 = system: OVCAR-4
OVCAR-5 = system: OVCAR-5
PC-3 = system: PC-3
RPMI-8226 = system: RPMI-8226
RXF 393 = system: RXF 393
SF-268 = system: SF-268
SF-539 = system: SF-539
SK-MEL-28 = system: SK-MEL-28
SK-MEL-2 = system: SK-MEL-2
SK-MEL-5 = system: SK-MEL-5
SK-OV-3 = system: SK-OV-3
SN12C = system: SN12C
SNB-19 = system: SNB-19
SNB-75 = system: SNB-75
SR = system: SR
SW-620 = system: SW-620
T47D = system: T47D
TK-10 = system: TK-10
U-251 = system: U-251
UACC-257 = system: UACC-257
UACC-62 = system: UACC-62
UO-31 = system: UO-31
CAKI-1 = system: CAKI-1
EKVX = system: EKVX
MOLT-4 = system: MOLT-4
NCI-H522 = system: NCI-H522
OVCAR-8 = system: OVCAR-8
SF-295 = system: SF-295

For `O=C(Cn1c(C(=O)/C=C/c2ccco2)nc2ccccc21)c1ccc(Cl)cc1`, the GI50 (786-0) was 14.3 µM (inactive), the GI50 (A498) was 17.2 µM (inactive) and the GI50 (A549) was 26.5 µM (inactive). For the same compound, the GI50 (ACHN) was 26.2 µM (inactive), the GI50 (BT-549) was 14.9 µM (inactive) and the GI50 (CCRF-CEM) was 3.58 µM (inactive). For the same compound, the GI50 (COLO 205) was 19.4 µM (inactive), the GI50 (DU-145) was 36.1 µM (inactive) and the GI50 (HCC 2998) was 17.1 µM (inactive). The GI50 (HCT-116) was 16.3 µM (inactive), the GI50 (HCT-15) was 20.6 µM and the GI50 (HL-60) was 15.5 µM (inactive). The GI50 (HOP-62) was 46.8 µM (inactive), the GI50 (HOP-92) was 26.4 µM (inactive) and the GI50 (HT-29) was 26.1 µM (inactive). The GI50 (Hs-578T) was 1.29 µM (inactive), the GI50 (IGROV-1) was 15.1 µM (inactive) and the GI50 (K562) was 11.7 µM (inactive). The GI50 (KM12) was 14.9 µM (inactive), the GI50 (LOX IMVI) was 13.8 µM (inactive) and the GI50 (M14) was 19.9 µM (inactive). For the same compound, the GI50 (MCF7) was 19.9 µM (inactive), the GI50 (MDA-MB-231) was 20.2 µM (inactive) and the GI50 (MDA-MB-435) was 12.1 µM (inactive). The GI50 (MDA-N) was 17.1 µM (inactive), the GI50 (Malme-3M) was 3.06 µM (inactive) and the GI50 (NCI-H226) was 52.7 µM (inactive). For the same compound, the GI50 (NCI-H23) was 11.9 µM (inactive), the GI50 (NCI-H460) was 12.3 µM (inactive) and the GI50 (NCI/ADR-RES) was 11.8 µM (inactive). For the same compound, the GI50 (OVCAR-3) was 31.5 µM (inactive), the GI50 (OVCAR-4) was 14.4 µM (inactive) and the GI50 (OVCAR-5) was > 100 µM (inactive). For the same compound, the GI50 (PC-3) was 15.8 µM (inactive), the GI50 (RPMI-8226) was 10.1 µM (inactive) and the GI50 (RXF 393) was 30.4 µM (inactive). The GI50 (SF-268) was 9.71 µM (inactive), the GI50 (SF-539) was 44.9 µM (inactive) and the GI50 (SK-MEL-28) was 26.6 µM (inactive). The GI50 (SK-MEL-2) was 12.3 µM (inactive), the GI50 (SK-MEL-5) was 19.9 µM (inactive) and the GI50 (SK-OV-3) was 44.4 µM (inactive). For the same compound, the GI50 (SN12C) was 15.2 µM (inactive), the GI50 (SNB-19) was 27.5 µM (inactive) and the GI50 (SNB-75) was 29 µM (inactive). For the same compound, the GI50 (SR) was 3.03 µM (inactive), the GI50 (SW-620) was 25.4 µM (inactive) and the GI50 (T47D) was 31.6 µM (inactive). For the same compound, the GI50 (TK-10) was 25.1 µM (inactive), the GI50 (U-251) was 23.8 µM (inactive) and the GI50 (UACC-257) was 14.5 µM (inactive). For the same compound, the GI50 (UACC-62) was 22.8 µM (inactive) and the GI50 (UO-31) was 23.2 µM (inactive).

With `O=c1c2ccc(Cl)cc2oc2c(CSc3ccccc3)cccc12` the GI50 (786-0) was > 61.5 µM (inactive), the GI50 (A498) was 25.7 µM (inactive) and the GI50 (A549) was > 32.4 µM (inactive). For the same compound, the GI50 (ACHN) was > 39.2 µM (inactive), the GI50 (BT-549) was > 43 µM (inactive) and the GI50 (CAKI-1) was > 38.5 µM (inactive). The GI50 (CCRF-CEM) was 10.1 µM (inactive), the GI50 (COLO 205) was > 70 µM (inactive) and the GI50 (DU-145) was 70.5 µM (inactive). The GI50 (EKVX) was > 50.4 µM (inactive), the GI50 (HCC 2998) was > 54.1 µM (inactive) and the GI50 (HCT-116) was 28.2 µM (inactive). For the same compound, the GI50 (HCT-15) was 28.4 µM, the GI50 (HOP-62) was > 55 µM (inactive) and the GI50 (HOP-92) was > 39.4 µM (inactive). The GI50 (HT-29) was 95.9 µM (inactive), the GI50 (Hs-578T) was > 100 µM (inactive) and the GI50 (IGROV-1) was > 24 µM (inactive). The GI50 (K562) was 15.3 µM (inactive), the GI50 (KM12) was 21.6 µM (inactive) and the GI50 (LOX IMVI) was 9.57 µM (inactive). For the same compound, the GI50 (M14) was > 42.5 µM (inactive), the GI50 (MCF7) was 29.1 µM (inactive) and the GI50 (MDA-MB-231) was > 63 µM (inactive). The GI50 (MDA-MB-435) was > 21.9 µM (inactive), the GI50 (MDA-N) was 31.7 µM (inactive) and the GI50 (MOLT-4) was 15.8 µM (inactive). For the same compound, the GI50 (Malme-3M) was 14.2 µM (inactive), the GI50 (NCI-H226) was 46.3 µM (inactive) and the GI50 (NCI-H23) was 28.4 µM (inactive). For the same compound, the GI50 (NCI-H460) was 23.8 µM (inactive), the GI50 (NCI-H522) was > 32.5 µM (inactive) and the GI50 (NCI/ADR-RES) was > 50.2 µM (inactive). For the same compound, the GI50 (OVCAR-3) was > 40.8 µM (inactive), the GI50 (OVCAR-4) was > 59.4 µM (inactive) and the GI50 (OVCAR-5) was > 62.8 µM (inactive). For the same compound, the GI50 (OVCAR-8) was 62.7 µM (inactive), the GI50 (PC-3) was > 39.5 µM (inactive) and the GI50 (RPMI-8226) was 13.2 µM (inactive). The GI50 (RXF 393) was > 100 µM (inactive), the GI50 (SF-268) was > 100 µM (inactive) and the GI50 (SF-295) was > 43.9 µM (inactive). For the same compound, the GI50 (SF-539) was 24.5 µM (inactive), the GI50 (SK-MEL-28) was > 53.1 µM (inactive) and the GI50 (SK-MEL-2) was > 49.1 µM (inactive). The GI50 (SK-MEL-5) was > 46.6 µM (inactive), the GI50 (SK-OV-3) was > 55 µM (inactive) and the GI50 (SN12C) was 43.6 µM (inactive). The GI50 (SNB-19) was > 45.5 µM (inactive), the GI50 (SNB-75) was > 33.2 µM (inactive) and the GI50 (SR) was 9.64 µM (inactive). The GI50 (SW-620) was 21.5 µM (inactive), the GI50 (T47D) was 61.7 µM (inactive) and the GI50 (TK-10) was > 55.3 µM (inactive). The GI50 (U-251) was 39.9 µM (inactive), the GI50 (UACC-257) was > 57.9 µM (inactive) and the GI50 (UACC-62) was > 41.4 µM (inactive).
